# Data reported in US20200010482A1, “INHIBITORS OF BETA SECRETASE” (Janssen Pharmaceutica NV, priority 2017, published 2020).
# Columns and labels:
# [1] = biological target: T1, BACE1 (Homo sapiens, UniProt P56817); assay: BACE1 biochemical FRET based assay; conditions: recombinant BACE1 0.04 μg/ml, 20 μM substrate, 450 min, pH 5.0; for IC50: read-out: BIOCHEMICAL FRET BASED ASSAY pIC50 (converted)
# T1 construct: recombinant BACE1 protein in a final concentration of 0.04 μg/ml
# Excerpt: (§1) This assay is a Fluorescence Resonance Energy Transfer Assay (FRET) based assay. The substrate for this assay is an APP derived 13 amino acids peptide that contains the ‘Swedish’ Lys-Met/Asn-Leu mutation of the amyloid precursor protein (APP) beta-secretase cleavage site. This substrate also contains two fluorophores: (7-methoxycoumarin-4-yl) acetic acid (Mca) is a fluorescent donor with excitation wavelength at 320 nm and emission at 405 nm and 2,4-Dinitrophenyl (Dnp) is a proprietary quencher acceptor. […] Upon cleavage by BACE1, the fluorophore Mca is separated from the quenching group Dnp, restoring the full fluorescence yield of the donor. The increase in fluorescence is linearly related to the rate of proteolysis.
# Briefly in a 384-well format recombinant BACE1 protein in a final concentration of 0.04 μg/ml is incubated for 450 minutes at room temperature with 20 μM substrate in incubation buffer (50 mM Citrate buffer pH 5.0, 0.05% PEG) in the presence of compound or DMSO. Next the amount of proteolysis is directly measured by fluorescence measurement (excitation at 320 nm and emission at 405 nm) at different incubation times (0, 30, 60, 90, 120 and 450 min). For every experiment a time curve (every 30 min between 0 min and 120 min) is used to determine the time where we find the lowest basal signal of the high control. The signal at this time (Tx) is used to subtract from the signal at 450 min. Results are expressed in RFU, as difference between T450 and Tx.
# (§2) A best-fit curve is fitted by a minimum sum of squares method to the plot of % Controlmin versus compound concentration. From this an IC50 value (inhibitory concentration causing 50% inhibition of activity) can be obtained. • LC=Median of the low control values=Low control: Reaction without enzyme • HC=Median of the High control values=High Control: Reaction with enzyme
# (§3) % Effect=100−[(sample−LC)/(HC−LC)*100]
# (§4) % Control=(sample/HC)*100
# (§5) % Controlmin=(sample−LC)/(HC−LC)*100
# [2] = test system: Abeta total produced and secreted by SKNBE2 cells expressing hAPP695; assay: Cellular αLisa assay in SKNBE2 cells, Abeta total; type: cell-based, human; conditions: SKNBE2 cells expressing hAPP695, 18 hours incubation; for IC50: Homo sapiens, SKNBE2, 18 h, read-out: CELLULAR αLISA ASSAY IN SKNBE2 CELLS ABETA TOTAL pIC50 (converted)
# Experimental: (§6) In two αLisa assays the levels of Abeta total and Abeta 1-42 produced and secreted into the medium of human neuroblastoma SKNBE2 cells are quantified. The assay is based on the human neuroblastoma SKNBE2 expressing the wild type Amyloid Precursor Protein (hAPP695). The compounds are diluted and added to these cells, incubated for 18 hours and then measurements of Abeta 1-42 and Abeta total are taken. Abeta total and Abeta 1-42 are measured by sandwich αLisa. αLisa is a sandwich assay using biotinylated antibody AbN/25 attached to streptavidin coated beads and antibody Ab4G8 or cAb42/26 conjugated acceptor beads for the detection of Abeta total and Abeta 1-42 respectively. In the presence of Abeta total or Abeta 1-42, the beads come into close proximity. The excitation of the donor beads provokes the release of singlet oxygen molecules that trigger a cascade of energy transfer in the acceptor beads, resulting in light emission. Light emission is measured after 1 hour incubation (excitation at […] and emission at 615 nm).
# as §2, with “cells preincubated” for “Reaction”, “compound, without biotinylated Ab in the αLisa” for “enzyme”, “cells preincubated without compound” for “Reaction with enzyme”
# as §3, §4, §5
# [3] = test system: Abeta 1-42 produced and secreted by SKNBE2 cells expressing hAPP695; assay: Cellular αLisa assay in SKNBE2 cells, Abeta 1-42; type: cell-based, human; conditions: SKNBE2 cells expressing hAPP695, 18 hours incubation; for IC50: Homo sapiens, SKNBE2, 18 h, read-out: CELLULAR αLISA ASSAY IN SKNBE2 CELLS ABETA 42 PIC50 (converted)
# Experimental: as §6
# as §2, with “cells preincubated” for “Reaction”, “compound, without biotinylated Ab in the αLisa” for “enzyme”, “cells preincubated without compound” for “Reaction with enzyme”
# as §3, §4, §5
# [4] = biological target: T2, BACE2 (Homo sapiens, UniProt Q9Y5Z0); assay: BACE2 biochemical FRET based assay; conditions: recombinant BACE2 0.4 μg/ml, 10 μM substrate, 450 min, pH 5.0; for IC50: read-out: BIOCHEMICAL FRET BASED ASSAY pIC50 (converted)
# T2 construct: recombinant BACE2 protein in a final concentration of 0.4 μg/ml
# T2 sequence (Q9Y5Z0 63-518): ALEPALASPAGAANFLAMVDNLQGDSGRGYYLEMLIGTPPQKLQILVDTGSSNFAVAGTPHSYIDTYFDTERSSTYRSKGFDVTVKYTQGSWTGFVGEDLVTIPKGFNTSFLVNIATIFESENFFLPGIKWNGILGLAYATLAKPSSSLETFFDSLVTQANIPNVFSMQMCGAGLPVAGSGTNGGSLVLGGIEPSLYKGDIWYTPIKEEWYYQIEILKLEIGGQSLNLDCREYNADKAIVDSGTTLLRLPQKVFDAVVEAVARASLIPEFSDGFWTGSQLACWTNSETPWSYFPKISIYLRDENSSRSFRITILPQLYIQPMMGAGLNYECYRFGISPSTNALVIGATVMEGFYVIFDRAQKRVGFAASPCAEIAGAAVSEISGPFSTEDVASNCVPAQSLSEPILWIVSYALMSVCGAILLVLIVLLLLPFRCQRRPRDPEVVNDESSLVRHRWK
# Excerpt: as §1, with “assay” for “assay is an APP derived 13 amino acids peptide that”, “the beta-secretase,” for “BACE1,”
# Briefly in a 384-well format recombinant BACE2 protein in a final concentration of 0.4 μg/ml is incubated for 450 minutes at room temperature with 10 μM substrate in incubation buffer (50 mM Citrate buffer pH 5.0, 0.05% PEG, no DMSO) in the absence or presence of compound. Next the amount of proteolysis is directly measured by fluorescence measurement at T=0 and T=450 (excitation at 320 nm and emission at 405 nm). Results are expressed in RFU (Relative Fluorescence Units), as difference between T450 and TO.
# as §2, §3, §4, §5
# T1 sequence (P56817 46-501): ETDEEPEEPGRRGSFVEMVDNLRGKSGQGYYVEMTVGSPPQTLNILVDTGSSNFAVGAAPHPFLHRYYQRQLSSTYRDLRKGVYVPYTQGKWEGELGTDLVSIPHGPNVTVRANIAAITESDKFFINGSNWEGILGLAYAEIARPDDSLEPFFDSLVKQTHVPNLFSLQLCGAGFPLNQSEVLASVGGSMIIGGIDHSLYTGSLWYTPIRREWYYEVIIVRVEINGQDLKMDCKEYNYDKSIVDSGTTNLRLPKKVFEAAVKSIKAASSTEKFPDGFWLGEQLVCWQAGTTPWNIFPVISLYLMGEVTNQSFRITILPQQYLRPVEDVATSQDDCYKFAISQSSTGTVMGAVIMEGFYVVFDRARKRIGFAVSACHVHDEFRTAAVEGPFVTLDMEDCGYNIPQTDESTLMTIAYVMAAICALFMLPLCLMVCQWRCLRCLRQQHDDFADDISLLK
SMILES,BIOCHEMICAL FRET BASED ASSAY pIC50 [1],CELLULAR αLISA ASSAY IN SKNBE2 CELLS ABETA TOTAL pIC50 [2],BIOCHEMICAL FRET BASED ASSAY pIC50 [4],IC50 [1] [µM],IC50 [2] [µM],IC50 [3] [µM],IC50 [4] [µM],CELLULAR αLISA ASSAY IN SKNBE2 CELLS ABETA 42 PIC50 [3]
COc1nccc2c1C[C@]1(c3ccccc3)N=C(N)SC[C@@H]1C2 (racemic) [Compound 1],–,–,–,0.398,0.0741,0.0692,0.468,–
COc1nccc2c1C[C@]1(c3ccccc3F)N=C(N)SC[C@@H]1C2 (racemic) [Compound 2],–,–,–,0.158,0.0468,0.0537,0.174,–
NC1=N[C@@]2(c3ccccc3F)Cc3c(cc[nH]c3=O)C[C@H]2CS1 (racemic) [Compound 3],–,–,–,8.71,4.68,4.07,9.55,–
COc1nccc2c1CC1(c3cc(O)ccc3F)N=C(N)SCC1C2 (racemic) [Compound 5],–,–,–,0.162,0.0324,0.0263,0.0631,–
COc1ncc(Br)c2c1C[C@]1(c3ccccc3F)N=C(N)SC[C@@H]1C2 (racemic) [Compound 16],–,–,–,0.055,0.138,0.138,0.0776,–
COc1ncc(Br)c2c1CC1(c3ccc(F)cc3F)N=C(N)SCC1C2 (racemic) [Compound 17],–,–,–,0.0309,0.145,0.132,0.0676,–
COc1ncc(C2CC2)c2c1C[C@]1(c3ccccc3F)N=C(N)SC[C@@H]1C2 (racemic) [Compound 20],–,–,–,0.0245,0.0234,0.0234,0.0141,–
CCOc1ncc(C2CC2)c2c1CC1(c3ccc(F)cc3F)N=C(N)SCC1C2 (racemic) [Compound 21],–,–,–,0.135,0.302,0.355,0.0977,–
COc1ncc(C#N)c2c1CC1(c3ccc(F)cc3F)N=C(N)SCC1C2 (racemic) [Compound 23],–,–,–,0.0759,0.0295,0.0263,0.155,–
CCOC(=O)c1cnc(OC)c2c1C[C@H]1CSC(N)=N[C@@]1(c1ccc(F)cc1F)C2 (racemic) [Compound 24],–,–,–,0.0138,0.00661,0.00692,0.0123,–
COc1ncc(-c2cccnc2)c2c1C[C@]1(c3ccc(F)cc3F)N=C(N)SC[C@@H]1C2 (racemic) [Compound 25],–,–,–,0.00589,0.00191,0.0017,0.012,–
COc1ncc(-c2ccn[nH]2)c2c1C[C@]1(c3ccc(F)cc3F)N=C(N)SC[C@@H]1C2 (racemic) [Compound 29],–,–,–,0.0355,0.0126,0.0135,0.0355,–
Cn1ccc2c(c1=O)C[C@]1(c3ccccc3F)N=C(N)SC[C@@H]1C2 (racemic) [Compound 34],–,–,–,6.03,1.51,1.41,6.03,–
COc1nccc2c1C[C@]1(c3ccc(F)cc3F)N=C(N)SC[C@@H]1C2 [Compound 35],–,–,–,0.0347,0.012,0.0138,0.0447,–
COc1nccc2c1C[C@]1(c3cc(O)ccc3F)N=C(N)SC[C@@H]1C2 [Compound 36],–,–,–,0.138,0.0158,0.0166,0.0457,–

# Now from value to molecule, other results behind:
BIOCHEMICAL FRET BASED ASSAY pIC50 [1],CELLULAR αLISA ASSAY IN SKNBE2 CELLS ABETA TOTAL pIC50 [2],BIOCHEMICAL FRET BASED ASSAY pIC50 [4],IC50 [1] [µM],IC50 [2] [µM],IC50 [3] [µM],IC50 [4] [µM],SMILES,CELLULAR αLISA ASSAY IN SKNBE2 CELLS ABETA 42 PIC50 [3]
8.3,8.71,5.78,–,–,–,–,COc1ncc(-c2cnccc2C)c2c1C[C@]1(c3cc(-c4cncnc4)ccc3F)N=C(N)SC[C@@H]1C2 (mixture of isomers) [Compound 39],8.78
–,–,–,> 10,6.92,> 8.91,> 10,"CCOc1nccc2c1CC1(c3ccc(F)cc3F)N=C(N)SCC1C2 (single isomer, unassigned) [Compound 194]",–
6.9,7.09,6.85,–,–,–,–,"CCOc1nccc2c1CC1(c3ccc(F)cc3F)N=C(N)SCC1C2 (single isomer, unassigned) [Compound 195]",7.09
–,8.05,–,0.0178,–,–,0.437,"COc1ncc(-c2cnccc2C)c2c1CC1(c3ccc(Cl)cc3F)N=C(N)SCC1C2 (single isomer, unassigned) [Compound 200]",8.09
–,5.69,–,6.46,–,–,> 10,"COc1ncc(-c2cnccc2C)c2c1CC1(c3ccc(Cl)cc3F)N=C(N)SCC1C2 (single isomer, unassigned) [Compound 201]",5.64
8.38,7.88,7.35,–,–,–,–,COc1ncc(-c2ccccc2Cl)c2c1C[C@]1(c3ccc(F)cc3F)N=C(N)SC[C@@H]1C2 [Compound 52],7.96
7.97,7.9,6.84,–,–,–,–,COc1ncc(-c2cc(C#N)ccc2Cl)c2c1C[C@]1(c3ccc(F)cc3F)N=C(N)SC[C@@H]1C2 [Compound 53],7.84
–,–,–,0.0038,0.000631,0.000646,0.00708,COc1ncc(-c2cccnc2)c2c1C[C@]1(c3ccc(F)cc3F)N=C(N)SC[C@@H]1C2 [Compound 87],–
